In the NIST ThermoML archive (doi:10.1021/acs.jced.8b00125):
± gives the expanded uncertainty stated by the source.

Conditions: Liquid, Closed cell (Static) method

| Structure (SMILES) | vapor or sublimation pressure (303.15 K) | vapor or sublimation pressure (313.15 K) | vapor or sublimation pressure (323.15 K) | vapor or sublimation pressure (333.15 K) | vapor or sublimation pressure (343.15 K) | vapor or sublimation pressure (353.15 K) | vapor or sublimation pressure (363.15 K) | vapor or sublimation pressure (373.15 K) | vapor or sublimation pressure (383.15 K) | vapor or sublimation pressure (393.15 K) |
| --- | --- | --- | --- | --- | --- | --- | --- | --- | --- | --- |
| C1CCCCC1 [cyclohexane] | 16.4 ± 1 kPa | 24.7 ± 1 kPa | 36.4 ± 1 kPa | 52 ± 1.1 kPa | 72.5 ± 1.1 kPa | – | – | – | – | – |
| CCCCCCCCCC [decane] | 0.2 kPa | 0.6 ± 1 kPa | 1 ± 1 kPa | 1.7 ± 1 kPa | 2.7 ± 1 kPa | 4.3 ± 1 kPa | 6.6 ± 1 kPa | 9.9 ± 1 kPa | 14.4 ± 1 kPa | 20.6 ± 1 kPa |
| CCCCCCCCCCCC [dodecane] | – | – | – | – | 0.4 kPa | 0.7 ± 1 kPa | 1.2 ± 1 kPa | 2 ± 1 kPa | 3.2 ± 1 kPa | 4.9 ± 1 kPa |
| CCC1CCCCC1 [ethylcyclohexane] | 2.1 ± 1 kPa | 3.7 ± 1 kPa | 6 ± 1 kPa | 9.3 ± 1 kPa | 13.9 ± 1 kPa | 20.4 ± 1 kPa | 28.9 ± 1 kPa | 40.3 ± 1 kPa | 54.8 ± 1.1 kPa | 73.2 ± 1.1 kPa |
| CCCCCCC [heptane] | 7.9 ± 1 kPa | 12.4 ± 1 kPa | 19 ± 1 kPa | 28.2 ± 1 kPa | 40.6 ± 1 kPa | 57.1 ± 1.1 kPa | – | – | – | – |
| CC1CCCCC1 [methylcyclohexane] | 7.9 ± 1 kPa | 12.3 ± 1 kPa | 18.5 ± 1 kPa | 27.1 ± 1 kPa | 38.7 ± 1 kPa | 53.8 ± 1.1 kPa | 73.3 ± 1.1 kPa | – | – | – |
